Source: paper PMC11233931, “Remodeling tumor‐associated macrophage for anti‐cancer effects by rational design of irreversible inhibition of mitogen‐activated protein kinase‐activated protein kinase 2” (MedComm, 2024)
Where two headings read alike, the source gives them in different places.

Legend:
Test in all cases: Eurofins kinase selectivity profile against 380 other human recombinant kinases (Table S2)
Format in all cases: biochemical
[1] = biological target: T1, 380 human recombinant protein kinases (Homo sapiens, UniProt P12931); details: for inhibition at 0.01 µM: 10 nM; for inhibition at 0.1 µM: 100 nM; for inhibition at 1 µM: 1000 nM
T1 construct: purchased Eurofins (Celle Lévescault)
T1 sequence (P12931 whole entry): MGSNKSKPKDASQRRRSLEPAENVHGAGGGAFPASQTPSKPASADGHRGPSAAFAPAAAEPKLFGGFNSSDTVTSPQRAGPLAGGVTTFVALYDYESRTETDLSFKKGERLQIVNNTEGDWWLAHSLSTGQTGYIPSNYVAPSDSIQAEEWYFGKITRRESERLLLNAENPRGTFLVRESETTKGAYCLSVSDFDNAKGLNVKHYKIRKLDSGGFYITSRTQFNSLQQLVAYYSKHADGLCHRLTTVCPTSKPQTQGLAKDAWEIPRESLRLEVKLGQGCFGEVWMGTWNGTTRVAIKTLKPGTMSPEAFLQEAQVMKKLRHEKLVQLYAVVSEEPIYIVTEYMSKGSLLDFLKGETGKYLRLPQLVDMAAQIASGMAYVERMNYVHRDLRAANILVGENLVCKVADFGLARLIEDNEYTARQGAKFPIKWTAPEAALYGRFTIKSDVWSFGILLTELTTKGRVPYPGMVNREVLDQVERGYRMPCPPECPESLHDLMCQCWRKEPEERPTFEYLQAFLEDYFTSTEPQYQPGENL
How it was run: (§1)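 To gauge specificity for MK2, the compound is profiled externally at various concentrations on recombinant human kinases, 380 in total.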

[2] = biological target: T2, 380 human recombinant protein kinases (Homo sapiens, UniProt P34947); details: GRK5(h), read-out: Inhibition rate
T2 construct: purchased Eurofins (Celle Lévescault)
T2 sequence (P34947 whole entry): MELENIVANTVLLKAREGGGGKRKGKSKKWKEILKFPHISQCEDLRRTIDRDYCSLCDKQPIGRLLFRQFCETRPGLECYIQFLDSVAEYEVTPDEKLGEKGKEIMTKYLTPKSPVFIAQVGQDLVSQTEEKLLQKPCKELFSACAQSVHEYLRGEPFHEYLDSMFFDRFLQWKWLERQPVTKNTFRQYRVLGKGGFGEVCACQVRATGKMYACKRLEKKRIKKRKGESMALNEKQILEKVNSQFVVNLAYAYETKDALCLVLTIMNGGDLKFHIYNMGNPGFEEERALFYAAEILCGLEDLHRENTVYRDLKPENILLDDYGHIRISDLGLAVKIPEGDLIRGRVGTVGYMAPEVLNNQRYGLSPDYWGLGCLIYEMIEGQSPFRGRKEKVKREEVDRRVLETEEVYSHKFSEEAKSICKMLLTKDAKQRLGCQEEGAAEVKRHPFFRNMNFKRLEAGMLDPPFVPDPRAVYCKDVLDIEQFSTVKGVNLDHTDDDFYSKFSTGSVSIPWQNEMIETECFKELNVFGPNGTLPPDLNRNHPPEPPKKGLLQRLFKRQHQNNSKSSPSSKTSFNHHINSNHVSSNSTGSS
How it was run: as §1

[3] = biological target: T3, 380 human recombinant protein kinases (Homo sapiens, UniProt P43405); details: Syk(h), read-out: Inhibition rate (%)
T3 construct: purchased Eurofins (Celle Lévescault)
How it was run: as §1

[4] = biological target: T4, 380 human recombinant protein kinases (Homo sapiens, UniProt Q13557); details: CaMKIIδ(h), read-out: Inhibition rate
T4 construct: purchased Eurofins (Celle Lévescault)
T4 sequence (Q13557 whole entry): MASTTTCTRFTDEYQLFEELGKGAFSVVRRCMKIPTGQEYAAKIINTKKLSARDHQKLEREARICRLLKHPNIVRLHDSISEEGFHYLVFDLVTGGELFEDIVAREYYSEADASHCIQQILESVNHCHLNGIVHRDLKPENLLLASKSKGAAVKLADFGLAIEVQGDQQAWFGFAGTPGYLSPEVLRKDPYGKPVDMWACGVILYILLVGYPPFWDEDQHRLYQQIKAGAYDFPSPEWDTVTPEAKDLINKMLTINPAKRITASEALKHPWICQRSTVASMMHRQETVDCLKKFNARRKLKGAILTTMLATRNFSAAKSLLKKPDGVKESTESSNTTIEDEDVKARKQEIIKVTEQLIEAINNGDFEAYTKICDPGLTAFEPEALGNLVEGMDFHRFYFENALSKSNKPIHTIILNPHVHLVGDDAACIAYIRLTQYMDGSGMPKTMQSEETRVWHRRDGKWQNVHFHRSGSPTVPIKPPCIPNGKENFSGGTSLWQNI
How it was run: as §1

[5] = biological target: T5, 380 human recombinant protein kinases (Homo sapiens, UniProt Q13627); details: DYRK1A(h), read-out: Inhibition rate
T5 construct: purchased Eurofins (Celle Lévescault)
How it was run: as §1

[6] = biological target: T6, 380 human recombinant protein kinases (Homo sapiens, UniProt Q5VT25); details: MRCKα(h), read-out: Inhibition rate
T6 construct: purchased Eurofins (Celle Lévescault)
T6 sequence (Q5VT25 whole entry): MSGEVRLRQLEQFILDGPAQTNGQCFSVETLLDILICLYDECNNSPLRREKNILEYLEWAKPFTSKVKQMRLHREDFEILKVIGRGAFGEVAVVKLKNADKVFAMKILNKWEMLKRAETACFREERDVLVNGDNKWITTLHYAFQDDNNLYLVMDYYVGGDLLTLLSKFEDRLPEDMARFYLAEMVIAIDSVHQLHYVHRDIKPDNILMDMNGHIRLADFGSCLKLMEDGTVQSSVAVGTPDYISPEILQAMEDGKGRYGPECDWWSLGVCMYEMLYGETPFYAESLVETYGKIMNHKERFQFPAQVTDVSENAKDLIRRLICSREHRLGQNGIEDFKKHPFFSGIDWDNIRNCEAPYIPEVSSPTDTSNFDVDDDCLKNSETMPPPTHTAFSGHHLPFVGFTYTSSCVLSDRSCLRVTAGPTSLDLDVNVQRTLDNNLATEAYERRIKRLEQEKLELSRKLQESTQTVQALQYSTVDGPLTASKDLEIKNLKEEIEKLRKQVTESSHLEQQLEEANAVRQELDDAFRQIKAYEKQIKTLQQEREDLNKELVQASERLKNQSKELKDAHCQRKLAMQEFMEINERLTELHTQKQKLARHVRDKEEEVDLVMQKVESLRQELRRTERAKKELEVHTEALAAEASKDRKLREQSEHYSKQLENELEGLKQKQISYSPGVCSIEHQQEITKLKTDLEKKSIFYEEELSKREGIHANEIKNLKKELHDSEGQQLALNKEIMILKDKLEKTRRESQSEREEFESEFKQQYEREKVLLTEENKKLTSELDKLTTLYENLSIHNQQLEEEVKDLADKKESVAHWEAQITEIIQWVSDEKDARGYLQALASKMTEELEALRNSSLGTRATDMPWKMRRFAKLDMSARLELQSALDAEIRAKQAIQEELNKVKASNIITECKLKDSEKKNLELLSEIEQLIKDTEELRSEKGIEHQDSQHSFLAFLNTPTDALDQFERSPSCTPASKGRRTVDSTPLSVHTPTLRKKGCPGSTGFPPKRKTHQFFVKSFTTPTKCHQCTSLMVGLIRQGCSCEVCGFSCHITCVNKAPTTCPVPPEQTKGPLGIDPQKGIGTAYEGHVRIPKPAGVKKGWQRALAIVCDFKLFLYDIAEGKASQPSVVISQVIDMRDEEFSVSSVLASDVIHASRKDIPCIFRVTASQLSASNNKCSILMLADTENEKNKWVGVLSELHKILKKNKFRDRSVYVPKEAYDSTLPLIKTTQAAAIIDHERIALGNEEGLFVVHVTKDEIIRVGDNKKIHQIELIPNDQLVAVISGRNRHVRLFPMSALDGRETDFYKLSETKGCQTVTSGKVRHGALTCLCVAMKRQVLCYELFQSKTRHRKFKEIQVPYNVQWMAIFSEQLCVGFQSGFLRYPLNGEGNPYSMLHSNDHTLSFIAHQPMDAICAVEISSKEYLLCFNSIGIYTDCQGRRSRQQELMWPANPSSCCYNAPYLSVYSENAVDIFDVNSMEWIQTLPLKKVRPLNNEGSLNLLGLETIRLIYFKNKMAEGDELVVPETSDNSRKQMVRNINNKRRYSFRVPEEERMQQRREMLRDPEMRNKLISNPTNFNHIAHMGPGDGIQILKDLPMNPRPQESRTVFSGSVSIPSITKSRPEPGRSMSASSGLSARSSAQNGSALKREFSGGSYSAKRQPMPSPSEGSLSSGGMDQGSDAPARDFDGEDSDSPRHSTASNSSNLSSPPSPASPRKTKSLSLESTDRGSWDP
How it was run: as §1

[7] = biological target: T7, 380 human recombinant protein kinases (Homo sapiens, UniProt Q96BR1); details: SGK3(h), read-out: Inhibition rate (%)
T7 construct: purchased Eurofins (Celle Lévescault)
T7 sequence (Q96BR1 1-496): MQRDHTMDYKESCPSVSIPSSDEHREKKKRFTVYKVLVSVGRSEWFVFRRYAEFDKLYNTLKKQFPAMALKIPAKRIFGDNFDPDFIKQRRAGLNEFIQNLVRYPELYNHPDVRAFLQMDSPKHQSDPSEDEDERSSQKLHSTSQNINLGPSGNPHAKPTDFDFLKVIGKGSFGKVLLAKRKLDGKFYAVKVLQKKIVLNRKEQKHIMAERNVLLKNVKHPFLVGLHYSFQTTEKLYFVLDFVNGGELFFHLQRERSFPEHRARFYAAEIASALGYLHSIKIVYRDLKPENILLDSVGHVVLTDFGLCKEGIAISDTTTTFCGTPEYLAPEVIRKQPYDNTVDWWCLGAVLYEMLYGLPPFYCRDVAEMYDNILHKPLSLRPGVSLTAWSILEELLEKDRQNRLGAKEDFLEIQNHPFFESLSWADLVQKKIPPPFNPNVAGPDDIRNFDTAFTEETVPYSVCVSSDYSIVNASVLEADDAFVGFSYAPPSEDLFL
How it was run: as §1

[8] = biological target: T8, 380 human recombinant protein kinases (Homo sapiens, UniProt Q9UEW8); details: STK39(h), read-out: Inhibition rate (%)
T8 construct: purchased Eurofins (Celle Lévescault)
How it was run: as §1

[9] = Src(1-530)(h), read-out: Inhibition rate (%)
[10] = cSRC(h), read-out: Inhibition rate

**Q.** Which results are given for `C=CC(=O)Nc1cc(-c2cc(-c3cc4c([nH]3)CCNC4=O)ccn2)ccc1OC(F)(F)F` [compound 11]?
**A.** inhibition at 0.01 µM [1, 9]: 6%; inhibition at 0.1 µM [1, 9]: 5%; inhibition at 1 µM [1, 9]: -1%; inhibition at 0.01 µM [1, 10]: 1%; inhibition at 0.1 µM [1, 10]: 8%; inhibition at 1 µM [1, 10]: 10%; inhibition at 0.01 µM ([2]; 10 nM): -6%; inhibition at 0.1 µM ([2]; 100 nM): -2%; inhibition at 1 µM ([2]; 1000 nM): 0%; inhibition at 0.01 µM ([3]; 10 nM): 5%; inhibition at 0.1 µM ([3]; 100 nM): -15%; inhibition at 1 µM ([3]; 1000 nM): -9%; inhibition at 0.01 µM ([4]; 10 nM): -7%; inhibition at 0.1 µM ([4]; 100 nM): 11%; inhibition at 1 µM ([4]; 1000 nM): 20%; inhibition at 0.01 µM ([5]; 10 nM): 20%; inhibition at 0.1 µM ([5]; 100 nM): 76%; inhibition at 1 µM ([5]; 1000 nM): 96%; inhibition at 0.01 µM ([6]; 10 nM): -5%; inhibition at 0.1 µM ([6]; 100 nM): -3%; inhibition at 1 µM ([6]; 1000 nM): -3%; inhibition at 0.01 µM ([7]; 10 nM): -8%; inhibition at 0.1 µM ([7]; 100 nM): 2%; inhibition at 1 µM ([7]; 1000 nM): -4%; inhibition at 0.01 µM ([8]; 10 nM): -10%; inhibition at 0.1 µM ([8]; 100 nM): -4%; inhibition at 1 µM ([8]; 1000 nM): 5%
